Experimental data as given in patent US20260373497A1, “MOLECULAR MACHINES STIMULATE INTERCELLULAR CALCIUM WAVES AND CAUSE MUSCLE CONTRACTION” (William Marsh Rice University, priority 2022, published 2026).
“Also recorded” adds a separate entry of the source.

What was measured:
C2C12 myoblasts = test: MM-induced calcium release in C2C12 cells (Fluo-4); assay type: cell-based, mouse; conditions: MM 1, 1 s instead of 500 ms
N2A cells = test: MM-induced calcium responses in N2A cells; assay type: cell-based; conditions: 400 nm, 250 ms, 3.2×10^2 W cm^−2
Text: FIGS. 11A & 11B—ICW in N2A cells after stimulation with MM 1 and light. (a) Confocal images of N2A cells treated with MM 1 (blue) and calcium tracking dye (Fluo-4; green). The white circle in the top-left image depicts the area to which stimulus was delivered. The scale bar is 50 μm and applies to all images. (b) Fluo-4 fluorescence traces of N2A cells treated with MM 1 and stimulated with 250 ms pulse of 400 nm light delivered to a 5 μm diameter circular region of interest at 3.2×10^2 W cm^−2 stimulation power.
Cell Culture and Preparation of Cells for Microscopy: HEK293 cells were chosen as the principal model system due to their prevalence in electrophysiological interrogation. […] HEK293 cells, HeLa cells, and N2A cells were cultured in DMEM (10% FBS, 1% penicillin/streptomycin) and passaged at <90% confluence. […]
In Vitro Imaging and Stimulation: Cells were loaded in a Nikon A1-Rsi confocal system mounted on a widefield Ti-E fluorescence microscope. […] Laser stimulation for in vitro experiments was performed with a 400 nm photodiode laser (Coherent OBIS™ LX SF) operating in a fluorescence-recovery-after-photobleaching (FRAP) experiment mode, delivering up to 6.4×10^2 W cm^−2 at sample level. […] Fluo-4 fluorescence was collected for 30 s before and 2 min after stimulation. […]

HEK293 cells = test: Assessment of stimulation toxicity (apoptosis, necrosis, PI uptake); assay type: cell-based
Text: Assessment of Stimulation Toxicity: The purpose was to use MM to interact with cell signaling. However, several previous studies by the group have explored the same or similar molecules for inducing cell permeabilization and death (Santos et al., 2022; Alaya-Orozco et al., 2020; Gunasekera et al., 2020). These studies used minutes-long light doses rather than the millisecond-scale doses employed in this work. Nevertheless, assessing the effects of MM stimulation on cell viability remains imperative.
Potentially toxic effects of MM stimulation on cells were assessed in several ways. First, qualitative analysis of stimulated cells can be used to assess toxicity. For these experiments, HEK293 cells were treated with MM 1 and prepared as was typical for stimulation experiments.
Second, once a suitable window of stimulation power had been identified, the effects of stimulation on cells were compared to healthy cells and several positive controls representing mechanisms of cell death. For these experiments, cells were loaded with Fluo-4, CellMask cell membrane labeling dye, and MM 1 and were imaged in the presence of cell-impermeant viability dye propidium iodide (PI; 1 μg mL^−1). The onset of apoptotic cell death in imaged colonies was confirmed by the observation of pyknosis (cell shrinkage) (Hajnoczky et al., 2003), the uptake of small amounts of PI, and the enhanced fluorescence of Fluo-4 in the colony (FIG. 8A).
Finally, to account for potential aftereffects of stimulation, isolated HEK293 colonies were grew in a grid pattern by photolithographically patterning polydimethylsiloxane onto Ibidi imaging dishes. Colonies were seeded with 25,000 cells cm^−2. Two days after seeding, cells were treated with MM 1 and Fluo-4 using typical protocols (see Example 6), and 10 selected cells were stimulated in selected colonies. After 24 h, these colonies were imaged again in the presence of 1 μg mL^−1 PI to observe any effects of MM stimulation on growth, cell stress, or viability.

C2C12 myotubes = test: C2C12 myotube contraction (image subtraction); assay type: cell-based, mouse; conditions: 400-nm light 1.5 s, image subtraction
Experimental: FIG. 35—Flow chart for the image subtraction process. First, the background is subtracted from the traces to account for drift during the course of the experiment (top row). After this, the traces are zeroed at the point of stimulation, and the area is calculated from the point of stimulation until the end of the experiment to yield the contraction magnitude. (bottom row).
FIGS. 40A-40D—MMs induce contraction in C2C12 myotubes, a) Confocal microscopy images of Fluo-4 and b) image subtraction of brightfield images to highlight calcium release and contractile motion in three stimulated myotubes (indicated by the red arrows) immediately before stimulation (t=0) for 1.5 s with 400-nm light, as well as 10 s and 120 s after stimulation. Scale bar=30 μm. c) Magnitude of contraction of MM 1 compared to DMSO, MM 2, MM 3, and cells treated with 10 μM U-73122. d) Mechanism of skeletal muscle cell contraction.
This method yielded images where the pixel intensity corresponds to movement over the course of the experiment (FIG. 40C), allowing us to easily visualize and quantify contraction.

| Structure (SMILES) | Calcium release at longer stimulation (C2C12 myoblasts) | Calcium responses induced by MM 1 actuation (N2A cells) | Cell toxicity after typical stimulation (HEK293 cells; MM 1 8 μM, 3.2×10^2 W cm^−2 for 250 ms) | Cell toxicity at reduced light dose (HEK293 cells; MM 1, 3.2×10^2 W cm^−2 for 1 s, 30 min) | Cell toxicity at high light dose (HEK293 cells; MM 1, 6.4×10^2 W cm^−2 for 4 s) | PI uptake of stimulated colonies 24 h after stimulation (HEK293 cells; MM 1, 10 cells stimulated per colony, 1 μg mL^−1 PI) | Necrotic cell death under UV/DAPI-filter LED (HEK293 cells; MM 1, 395/25 nm, 166 mW cm^−2, 5 min) | Myotube contraction (C2C12 myotubes) |
| --- | --- | --- | --- | --- | --- | --- | --- | --- |
| CC1Cc2ccc3ccccc3c2C1=C1c2ccccc2Sc2cc(NCCN(C)C)ccc21 (stereo not drawn) [MM 1] | larger calcium release | also observed | cells recovered from stimulation and showed no signs of apoptosis or necrosis | strong calcium responses from cells without observable toxicity; also recorded: the calcium signal has returned to homeostatic levels, and the stimulated cell and surrounding cells display no apparent damage | membrane blebbing and calcium accumulation over a 30 min period, indicating cell death; also recorded: membrane blebbing and runaway calcium accumulation; also recorded: the calcium signal has not returned to homeostasis, and membrane blebbing is apparent | indistinguishable from untreated colonies | Necrotic cell death was observed | strong contraction in C2C12 myotubes |
| CC1Cc2cc(NCCN(C)C)c3ccccc3c2C1=C1c2ccccc2-c2ccccc21 (stereo not drawn) [MM 3] | – | – | – | – | – | – | – | Strong cellular contraction did not occur |
